One assay has as its target T1, human GLP-1R (Homo sapiens, UniProt P43220).
T1 construct: FLAG (N)
As to the kind of experiment: Agonist activity on human GLP-1R, CRE-luciferase reporter assay with increase in intracellular cAMP as indicator (hGLP-1R/CRE-luc/CHO-K1 cell). Format: cell-based. The text has this:
(§1) Evaluation of Agonist Activity on Human GIPR and Human GLP-1R with Increase in Intracellular cAMP Concentration as Indicator
(§2) A) Evaluation of Agonist Activity on Human GIPR and Human GLP-IR with Increase in Intracellular cAMP Concentration as Indicator
(§3) (3) Construction of Reporter Plasmid
(§4) Four Copies of a cAMP responsive sequence and a Zeocin resistance gene were transferred to pGL3(R2.2)-Basic Vector (Promega) to construct a Cre-luc(Zeo) reporter plasmid.
(5) Construction of Expression Plasmid of Human GLP-1R Gene
The human GLP-IR gene having an identical sequence to Genebank Accession No. NM_002062 was cloned into a pIRESneo3 vector to prepare hGLP-1/pIRESneo3.
(6) Transfer of Human GLP-1R Gene and Reporter Plasmid to CHO-K1 Cell and Obtaining of Expressing Cell
The Cre-luc (Zeo) obtained in (3) and the plasmid hGLP-1/pIRESneo3 obtained in (5) were transferred to the CHO-K1 cell to obtain a transformant. Subsequently, the cell line inducing the luciferase expression, hGLP-1R/CRE-luc/CHO-K1 cell, was selected from the obtained transformant by adding GLP-1.
(§5) 25 μL each of the hGIPR/CRE-LUC/CHO-K1 cell was inoculated in a 384-well white plate (Corning) in such a way as to provide 5×10^3 cells/well and cultured in a HamF12 medium containing 10% fetal bovine serum, 100 U/mL penicillin, and 100 μg/mL streptomycin in a CO2 incubator at 37° C. overnight. 5 μL of a medium containing a test compound was added to the cells and incubated for 4 hours at the indicated concentration in a CO2 incubator at 37° C. Steady-Glo (Promega) was added in amounts of 30 μL and shaken under light shielding. 20 Minutes later, luciferase activity was measured using a plate reader Envision (PerkinElmer). The GIPR agonist activity was calculated with increase in intracellular cAMP concentration as the indicator when the luciferase activity in the presence of 10 nM of GIP was 100% and the luciferase activity in the case of adding DMSO instead of the test compound was 0%.
The GLP-IR agonist activity was assayed in the same manner as above using the hGLP-1R/CRE-luc/CHO-K1 cell.

A further assay deals with T2, human GIPR (Homo sapiens, UniProt P48546).
T2 construct: FLAG (N)
T2 sequence (P48546 22-466): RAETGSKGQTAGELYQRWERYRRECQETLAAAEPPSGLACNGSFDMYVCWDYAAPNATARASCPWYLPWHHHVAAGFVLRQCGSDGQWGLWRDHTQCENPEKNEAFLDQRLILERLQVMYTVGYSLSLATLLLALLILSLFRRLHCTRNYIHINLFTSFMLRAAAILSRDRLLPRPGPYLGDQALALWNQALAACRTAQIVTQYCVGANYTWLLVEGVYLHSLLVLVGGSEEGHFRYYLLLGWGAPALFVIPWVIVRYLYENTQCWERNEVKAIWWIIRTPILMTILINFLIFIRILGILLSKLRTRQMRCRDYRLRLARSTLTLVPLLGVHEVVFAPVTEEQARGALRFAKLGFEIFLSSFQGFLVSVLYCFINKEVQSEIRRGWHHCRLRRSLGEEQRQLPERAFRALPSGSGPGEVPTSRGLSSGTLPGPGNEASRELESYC
The experiment in a line: Agonist activity on human GIPR, CRE-luciferase reporter assay with increase in intracellular cAMP as indicator (hGIPR/CRE-LUC/CHO-K1 cell). The format is cell-based.
From the text: as §1, §2
(1) Construction of Expression Plasmid of Human GIPR Gene. The Human GIPR Gene Having an Identical Sequence to Genebank Accession No. U39231 was Cloned into a pMSRα-Neo Vector to Prepare hGIPR/pMSRα-Neo.
(2) Construction of Reporter Plasmid Expressing Cell Luciferase Reporter Gene with a cAMP-Responsive Sequence Located Upstream was Transferred to a CHO-K1 Cell to Construct a CRE-LUC/CHO-K1 Cell.
as §3, §4
(4) Transfer of Human GIPR Gene to CRE-LUC/CHO-K1 Cell and Obtaining of Expressing Cell the Plasmid hGIPR/pMSRα-Neo Obtained in (1) was Transferred to the CRELUC.
CHO-K1 cell obtained in (2) to obtain a transformant. Subsequently, the cell line inducing the luciferase expression, hGIPR/CRE-LUC/CHO-K1 cell, was selected from the obtained transformant by adding GIP.
as §5, with “Steady-Glo (Promega) was added in amounts of 30 μL and shaken under light shielding.” left out
(A reporter such as luciferase makes a cellular process visible.)

The structures appear in SMILES notation.

T1 sequence (P43220 24-463): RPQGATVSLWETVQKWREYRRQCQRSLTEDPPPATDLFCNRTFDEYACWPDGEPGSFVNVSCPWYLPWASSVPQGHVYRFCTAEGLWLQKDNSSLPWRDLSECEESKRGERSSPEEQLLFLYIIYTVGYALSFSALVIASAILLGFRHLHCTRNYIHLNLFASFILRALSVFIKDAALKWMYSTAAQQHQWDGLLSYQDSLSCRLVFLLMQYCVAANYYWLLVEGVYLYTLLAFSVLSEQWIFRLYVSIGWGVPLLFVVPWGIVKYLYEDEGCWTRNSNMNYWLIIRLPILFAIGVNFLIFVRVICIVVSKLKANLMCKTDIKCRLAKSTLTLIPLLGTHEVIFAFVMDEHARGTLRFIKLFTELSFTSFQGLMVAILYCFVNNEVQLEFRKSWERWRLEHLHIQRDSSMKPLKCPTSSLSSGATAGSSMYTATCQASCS

By EC50 is commonly meant the concentration at which the effect is half-maximal. Higher therefore signals lower potency in that assay. Take `CCCCCCCCCCCCCCCC(=O)NCCCC[C@H](NC(=O)[C@H](CO)NC(=O)[C@@H]1CCCN1C(=O)[C@@H]1CCCN1C(=O)[C@@H]1CCCN1C(=O)[C@H](C)NC(=O)CNC(=O)[C@H](CO)NC(=O)[C@H](CO)NC(=O)[C@@H]1CCCN1C(=O)[C@H](CCCCN)NC(=O)[C@H](CCC(N)=O)NC(=O)[C@H](C)NC(=O)[C@H](CC(C)C)NC(=O)[C@H](CC(C)C)NC(=O)[C@H](Cc1c[nH]c2ccccc12)NC(=O)[C@H](CC(N)=O)NC(=O)[C@@H](NC(=O)[C@H](Cc1ccccc1)NC(=O)[C@H](CC(=O)O)NC(=O)[C@H](CCC(N)=O)NC(=O)[C@H](CCC(N)=O)NC(=O)[C@H](Cc1c[nH]cn1)NC(=O)[C@@H](NC(=O)[C@H](CCCCN)NC(=O)[C@H](CC(=O)O)NC(=O)[C@H](CCSC)NC(=O)[C@H](C)NC(=O)[C@@H](NC(=O)[C@H](CO)NC(=O)[C@H](Cc1ccc(O)cc1)NC(=O)[C@H](CC(=O)O)NC(=O)[C@H](CO)NC(=O)[C@@H](NC(=O)[C@H](Cc1ccccc1)NC(=O)[C@@H](NC(=O)CNC(=O)[C@H](CCC(=O)O)NC(=O)[C@H](C)NC(=O)[C@@H](N)Cc1ccc(O)cc1)[C@@H](C)O)[C@@H](C)CC)[C@@H](C)CC)[C@@H](C)CC)C(C)C)C(N)=O` [Compound 12]: a half-maximal response on human GLP-1R (EC50) required 86 nM. This counts as double-digit nanomolar.

With `CCCCCCCCCCCCCCCCCCCC(=O)NCC(=O)NCC(=O)NCC(=O)NCC(=O)NCCCC[C@H](NC(=O)[C@H](CO)NC(=O)[C@@H]1CCCN1C(=O)[C@@H]1CCCN1C(=O)[C@@H]1CCCN1C(=O)[C@H](C)NC(=O)CNC(=O)[C@H](CO)NC(=O)[C@H](CO)NC(=O)[C@@H]1CCCN1C(=O)CNC(=O)CNC(=O)[C@H](CCCCN)NC(=O)[C@H](CC(C)C)NC(=O)[C@H](CC(C)C)NC(=O)[C@H](Cc1c[nH]c2ccccc12)NC(=O)[C@H](CCCCN)NC(=O)[C@@H](NC(=O)[C@H](Cc1ccccc1)NC(=O)[C@H](CCC(=O)O)NC(=O)C(C)(C)NC(=O)[C@H](CCC(N)=O)NC(=O)[C@H](C)NC(=O)[C@H](CCC(N)=O)NC(=O)[C@H](CCCCN)NC(=O)[C@H](CC(=O)O)NC(=O)[C@H](CC(C)C)NC(=O)[C@H](CC(C)C)NC(=O)[C@@H](NC(=O)[C@H](CO)NC(=O)[C@H](Cc1ccc(O)cc1)NC(=O)[C@H](CC(=O)O)NC(=O)[C@H](CO)NC(=O)[C@H](CCCCN)NC(=O)[C@@H](NC(=O)[C@@H](NC(=O)CNC(=O)[C@H](CCC(=O)O)NC(=O)C(C)(C)NC(=O)[C@@H](N)Cc1ccc(O)cc1)[C@@H](C)O)C(C)C)[C@@H](C)CC)C(C)C)C(N)=O` [Compound 8], the EC50 at human GIPR worked out at 0.04 nM; on human GLP-1R it was 180 nM.

`CCCCCCCCCCCCCCCC(=O)NCCCC[C@H](NC(=O)[C@H](CO)NC(=O)[C@@H]1CCCN1C(=O)[C@@H]1CCCN1C(=O)[C@@H]1CCCN1C(=O)[C@H](C)NC(=O)CNC(=O)[C@H](CO)NC(=O)[C@H](CO)NC(=O)[C@@H]1CCCN1C(=O)CNC(=O)CNC(=O)[C@H](CCCCN)NC(=O)[C@H](CC(C)C)NC(=O)[C@H](CC(C)C)NC(=O)[C@H](Cc1c[nH]c2ccccc12)NC(=O)[C@H](CCCCN)NC(=O)[C@@H](NC(=O)[C@H](Cc1ccccc1)NC(=O)[C@H](CCC(=O)O)NC(=O)C(C)(C)NC(=O)[C@H](CCC(N)=O)NC(=O)[C@H](C)NC(=O)[C@H](CCC(N)=O)NC(=O)[C@H](CCCCN)NC(=O)[C@H](CC(=O)O)NC(=O)[C@H](CC(C)C)NC(=O)[C@H](CC(C)C)NC(=O)[C@@H](NC(=O)[C@H](CO)NC(=O)[C@H](Cc1ccc(O)cc1)NC(=O)[C@H](CC(=O)O)NC(=O)[C@H](CO)NC(=O)[C@H](CCCCN)NC(=O)[C@@H](NC(=O)[C@@H](NC(=O)CNC(=O)[C@H](CCC(=O)O)NC(=O)C(C)(C)NC(=O)[C@@H](N)Cc1ccc(O)cc1)[C@@H](C)O)C(C)C)[C@@H](C)CC)C(C)C)C(N)=O` [Compound 10]: the EC50 at human GIPR was 0.03 nM; on human GLP-1R, 210 nM.

Take `CC[C@H](C)[C@H](NC(=O)[C@H](CO)NC(=O)[C@H](Cc1ccc(O)cc1)NC(=O)[C@H](CC(=O)O)NC(=O)[C@H](CO)NC(=O)[C@H](CCCCN)NC(=O)[C@@H](NC(=O)[C@@H](NC(=O)CNC(=O)[C@H](CCC(=O)O)NC(=O)C(C)(C)NC(=O)[C@@H](N)Cc1ccc(O)cc1)[C@@H](C)O)C(C)C)C(=O)N[C@@H](CC(C)C)C(=O)N[C@@H](CC(C)C)C(=O)N[C@@H](CC(=O)O)C(=O)N[C@@H](CCCCN)C(=O)N[C@@H](CCC(N)=O)C(=O)N[C@@H](C)C(=O)N[C@@H](CCC(N)=O)C(=O)NC(C)(C)C(=O)N[C@@H](CCC(=O)O)C(=O)N[C@@H](Cc1ccccc1)C(=O)N[C@H](C(=O)N[C@@H](CCCCN)C(=O)N[C@@H](Cc1c[nH]c2ccccc12)C(=O)N[C@@H](CC(C)C)C(=O)N[C@@H](CC(C)C)C(=O)N[C@@H](CCCCN)C(=O)NCC(=O)NCC(=O)N1CCC[C@H]1C(=O)N[C@@H](CO)C(=O)N[C@@H](CO)C(=O)NCC(=O)N[C@@H](C)C(=O)N1CCC[C@H]1C(=O)N1CCC[C@H]1C(=O)N1CCC[C@H]1C(=O)N[C@@H](CO)C(=O)N[C@@H](CCCCNC(=O)CCCCCCCCCCCCCCC(=O)O)C(N)=O)C(C)C` [Compound 11]: the EC50 on human GIPR came to 0.1 nM; at human GLP-1R, 180 nM.

Values taken from patent US12122815B2, “GIP receptor agonist peptide compounds and uses thereof” (TAKEDA PHARMACEUTICAL COMPANY LIMITED, priority 2018, dated 2024).
